Data: PubChem BioAssay AID248 (DTP/NCI, 2004)
Values joined by “and” are separate entries in the source; they are usually repeats but may differ in a detail not shown here. Equal values may be shown once. Toxic doses and inconclusive results are not listed. Rule as the data show it: active = T/C of 150% or more; inactive = T/C below 125%.

System: L1210 leukemia ip in BDF1 mice, survival T/C
Test: NCI In Vivo Anticancer Drug Screen. Data for tumor model L1210 Leukemia (intraperitoneal) in B6D2F1 (BDF1) mice
Conditions: endpoint: mean survival time, higher = longer survival
In short: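 In this screen, tumor-bearing mice given compound are compared to those given vehicle, and their survival values are reported as a treated-to-control quotient.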

[1] = dose: 100.0 mg/kg/injection, schedule: Q01DX001 (ip), vehicle: saline
[2] = dose: 200.0 mg/kg/injection, schedule: Q01DX001 (ip), vehicle: saline
[3] = dose: 400.0 mg/kg/injection, schedule: Q01DX001 (ip), vehicle: saline
[4] = dose: 100.0 mg/kg/injection, schedule: Q04DX002 (ip), vehicle: saline with Tween-80
[5] = dose: 200.0 mg/kg/injection, schedule: Q04DX002 (ip), vehicle: saline with Tween-80
[6] = dose: 400.0 mg/kg/injection, schedule: Q04DX002 (ip), vehicle: saline with Tween-80
[7] = dose: 100.0 mg/kg/injection, schedule: Q01DX009 (ip), vehicle: Klucel (hydroxypropylcellulose) (HPC)
[8] = dose: 100.0 mg/kg/injection, schedule: Q04DX003 (ip), vehicle: Klucel (hydroxypropylcellulose) (HPC)
[9] = dose: 200.0 mg/kg/injection, schedule: Q01DX009 (ip), vehicle: Klucel (hydroxypropylcellulose) (HPC)
[10] = dose: 200.0 mg/kg/injection, schedule: Q04DX003 (ip), vehicle: Klucel (hydroxypropylcellulose) (HPC)
[11] = dose: 400.0 mg/kg/injection, schedule: Q01DX009 (ip), vehicle: Klucel (hydroxypropylcellulose) (HPC)
[12] = dose: 400.0 mg/kg/injection, schedule: Q04DX003 (ip), vehicle: Klucel (hydroxypropylcellulose) (HPC)
[13] = dose: 100.0 mg/kg/injection, schedule: Q04DX002 (ip), vehicle: Klucel (hydroxypropylcellulose) (HPC)
[14] = dose: 200.0 mg/kg/injection, schedule: Q04DX002 (ip), vehicle: Klucel (hydroxypropylcellulose) (HPC)
[15] = dose: 400.0 mg/kg/injection, schedule: Q04DX002 (ip), vehicle: Klucel (hydroxypropylcellulose) (HPC)
[16] = dose: 100.0 mg/kg/injection, schedule: Q04DX003 (ip), vehicle: other
[17] = dose: 200.0 mg/kg/injection, schedule: Q04DX003 (ip), vehicle: other
[18] = dose: 400.0 mg/kg/injection, schedule: Q04DX003 (ip), vehicle: other
[19] = dose: 50.0 mg/kg/injection, schedule: Q01DX001 (ip), vehicle: carboxymethylcellulose (CMC)
[20] = dose: 100.0 mg/kg/injection, schedule: Q01DX001 (ip), vehicle: carboxymethylcellulose (CMC)
[21] = dose: 200.0 mg/kg/injection, schedule: Q01DX001 (ip), vehicle: carboxymethylcellulose (CMC)

Measured: T/C

CC(C)OC(=O)c1cccc2c1-c1ccccc1C2=O
inactive: [1] 92 % of control | [2] 92 % of control | [3] 95 % of control

[C-]#[N+]/C=C1\OC(=O)C=C1C
inactive: [4] 97 % of control | [5] 110 % of control | [6] 97 % of control

CC(=O)C(C)C(O)c1ccc([N+](=O)[O-])cc1 (centres undefined)
inactive: [7] 91 % of control | [8] 100 % of control | [9] 91 % of control | [10] 98 % of control | [11] 92 % of control | [12] 98 % of control

N#CCCCCCl
inactive: dose: 6.0 mg/kg/injection, schedule: Q01DX009 (ip), vehicle: saline 103 % of control | dose: 12.0 mg/kg/injection, schedule: Q01DX009 (ip), vehicle: saline 105 % of control | dose: 12.0 mg/kg/injection, schedule: Q04DX003 (ip), vehicle: saline 97 % of control | dose: 25.0 mg/kg/injection, schedule: Q01DX009 (ip), vehicle: saline 103 % of control | dose: 25.0 mg/kg/injection, schedule: Q04DX003 (ip), vehicle: saline 96 % of control

O=C(CCCCl)NCc1ccccc1[N+](=O)[O-]
inactive: [7] 96 % of control | [8] 101 % of control | [9] 90 % of control | [10] 93 % of control | [11] 91 % of control | [12] 97 % of control

O=P(O)(CCP(=O)(O)c1ccccc1)c1ccccc1
inactive: [13] 95 % of control | [14] 91 % of control | [15] 106 % of control

O=C1c2cccc(NCCO)c2C(=O)c2c(NCCO)cccc21
inactive: [8] 94 % of control | [10] 102 % of control | [12] 94 % of control

O=C(Nc1cccc2ccccc12)NC1CC1
inactive: dose: 100.0 mg/kg/injection, schedule: Q01DX009 (ip), vehicle: other 94 % of control | [16] 97 % of control | dose: 200.0 mg/kg/injection, schedule: Q01DX009 (ip), vehicle: other 94 % of control | [17] 96 % of control | dose: 400.0 mg/kg/injection, schedule: Q01DX009 (ip), vehicle: other 94 % of control | [18] 87 % of control

COCCCNP(=S)(OC)OC
inactive: dose: 100.0 mg/kg/injection, schedule: Q01DX001 (ip), vehicle: other 98 % of control | [16] 98 % of control | dose: 200.0 mg/kg/injection, schedule: Q01DX001 (ip), vehicle: other 105 % of control | [17] 98 % of control | dose: 400.0 mg/kg/injection, schedule: Q01DX001 (ip), vehicle: other 94 % of control | [18] 101 % of control

CN(C)CCC(=O)O
inactive: dose: 100.0 mg/kg/injection, schedule: Q01DX009 (ip), vehicle: saline 92 % of control | dose: 100.0 mg/kg/injection, schedule: Q04DX003 (ip), vehicle: saline sonified 108 % of control | dose: 200.0 mg/kg/injection, schedule: Q01DX009 (ip), vehicle: saline 97 % of control | dose: 200.0 mg/kg/injection, schedule: Q04DX003 (ip), vehicle: saline sonified 105 % of control | dose: 400.0 mg/kg/injection, schedule: Q01DX009 (ip), vehicle: saline 94 % of control | dose: 400.0 mg/kg/injection, schedule: Q04DX003 (ip), vehicle: saline sonified 95 % of control

Cc1onc(-c2ccccc2Cl)c1-c1nc2ccccc2c(=O)o1
inactive: [13] 93 % of control | [14] 93 % of control | [15] 96 % of control

COc1ccc([N+](=O)[O-])cc1NC(=O)Nc1ccc(C(=O)OCC(C)C)cc1
inactive: [7] 100 % of control | [9] 100 % of control | [11] 95 % of control

COc1cccc(/C=N/Nc2nnc(N/N=C/c3cccc(OC)c3)c3ccccc23)c1
inactive: [19] 101 % of control | [20] 107 % of control | [21] 103 % of control

Nc1cc2c(cc1Br)-c1c(C(=O)O)cccc1C2=O
inactive: dose: 75.0 mg/kg/injection, schedule: Q01DX001 (ip), vehicle: carboxymethylcellulose (CMC) 101 % of control | dose: 150.0 mg/kg/injection, schedule: Q01DX001 (ip), vehicle: carboxymethylcellulose (CMC) 95 % of control | dose: 300.0 mg/kg/injection, schedule: Q01DX001 (ip), vehicle: carboxymethylcellulose (CMC) 98 % of control

C=C1C(=O)O[C@@H]2CC(C)=C3CC[C@@](C)(O)[C@@H]3C[C@H]12
inactive: dose: 75.0 mg/kg/injection, schedule: Q04DX003 (ip), vehicle: Klucel (hydroxypropylcellulose) (HPC) 106 % of control | dose: 150.0 mg/kg/injection, schedule: Q04DX003 (ip), vehicle: Klucel (hydroxypropylcellulose) (HPC) 102 % of control | dose: 300.0 mg/kg/injection, schedule: Q04DX003 (ip), vehicle: Klucel (hydroxypropylcellulose) (HPC) 98 % of control | dose: 600.0 mg/kg/injection, schedule: Q04DX003 (ip), vehicle: Klucel (hydroxypropylcellulose) (HPC) 94 % of control

Nc1ncnc2c1CP(=O)(c1ccccc1)CC2 (centres undefined)
inactive: [4] 103 % of control | [5] 103 % of control | [6] 103 % of control

COC/C(C)=C/Br
inactive: dose: 100.0 mg/kg/injection, schedule: Q01DX009 (ip), vehicle: acetone 97 % of control | dose: 200.0 mg/kg/injection, schedule: Q01DX009 (ip), vehicle: acetone 94 % of control | dose: 400.0 mg/kg/injection, schedule: Q01DX009 (ip), vehicle: acetone 94 % of control

CC1c2cc(C(=O)O)ccc2OC1(C)C (centres undefined)
inactive: [1] 96 % of control | [2] 102 % of control | [3] 91 % of control

c1ccc(NC23CC4CC(CC(C4)C2)C3)cc1
inactive: dose: 50.0 mg/kg/injection, schedule: Q01DX009 (ip), vehicle: saline with Tween-80 102 % of control | dose: 100.0 mg/kg/injection, schedule: Q01DX009 (ip), vehicle: saline with Tween-80 97 % of control | dose: 100.0 mg/kg/injection, schedule: Q04DX003 (ip), vehicle: saline with Tween-80 94 % of control | dose: 200.0 mg/kg/injection, schedule: Q01DX009 (ip), vehicle: saline with Tween-80 88 % of control | dose: 200.0 mg/kg/injection, schedule: Q04DX003 (ip), vehicle: saline with Tween-80 92 % of control | dose: 300.0 mg/kg/injection, schedule: Q01DX009 (ip), vehicle: saline with Tween-80 98 % of control

N#CCCCCSC12CC3CC(CC(C3)C1)C2
inactive: [13] 115 % of control | [14] 108 % of control | [15] 89 % of control

CC(=O)Nc1ccc2c(c1)C(c1ccccc1)=NCC(=O)N2
inactive: [1] 103 % of control | dose: 100.0 mg/kg/injection, schedule: Q01DX Z (ip), vehicle: carboxymethylcellulose (CMC) 107 % of control | dose: 100.0 mg/kg/injection, schedule: Q01DX Z (ip), vehicle: methylcellulose (MC) 100 % of control | dose: 150.0 mg/kg/injection, schedule: Q01DX Z (ip), vehicle: carboxymethylcellulose (CMC) 112 % of control and 114 % of control | dose: 150.0 mg/kg/injection, schedule: Q01DX Z (ip), vehicle: methylcellulose (MC) 103 % of control | [2] 103 % of control | dose: 225.0 mg/kg/injection, schedule: Q01DX Z (ip), vehicle: carboxymethylcellulose (CMC) 100 % of control | dose: 225.0 mg/kg/injection, schedule: Q01DX Z (ip), vehicle: methylcellulose (MC) 107 % of control | dose: 337.0 mg/kg/injection, schedule: Q01DX Z (ip), vehicle: carboxymethylcellulose (CMC) 97 % of control | dose: 337.0 mg/kg/injection, schedule: Q01DX Z (ip), vehicle: methylcellulose (MC) 109 % of control | [3] 91 % of control | dose: 600.0 mg/kg/injection, schedule: Q01DX001 (ip), vehicle: saline 98 % of control | dose: 1200.0 mg/kg/injection, schedule: Q01DX001 (ip), vehicle: saline 120 % of control | dose: 2400.0 mg/kg/injection, schedule: Q01DX001 (ip), vehicle: saline 120 % of control

Cc1cccc(C(=O)O)[n+]1[O-]
inactive: [19] 100 % of control | [20] 95 % of control | [21] 98 % of control | dose: 400.0 mg/kg/injection, schedule: Q01DX001 (ip), vehicle: carboxymethylcellulose (CMC) 100 % of control
